Experimental findings from US11684610B2, “Pharmaceutical composition including 1,2-naphthoquinone derivative compound for prevention or treatment of solid cancers or blood cancers” (YUNGJIN PHARM. CO., LTD., priority 2018, dated 2023) are described below.

For assay [1], the system named is Hela (cervix adenocarcinoma). The experiment in a line: Cell viability in solid cancer cells, WST assay, Hela. In kind it is cell-based, human. The note with it: Homo sapiens, 1 to 30 μM, 6 hours. An excerpt:
(§1) To confirm the possibility of use as a therapeutic agent for solid cancer, A549 cell line obtained from a […] with lung carcinoma, Hela cell line obtained from a person with cervix adenocarcinoma, HepG2 cell line obtained from a child with hepatocellular carcinoma, MCF7 cell line obtained from a person with breast adenocarcinoma, and Beas-2B cell line obtained from a normal lung for comparison with solid cancer cell line were used.
(§2) The A549 (lung carcinoma), Hela (cervix adenocarcinoma), HepG2 (hepatocellular carcinoma), MCF7 (breast carcinoma), and Beas-2B (normal lung) cell lines were used in DMEM medium containing 10% FBS, subcultured once every 2 days in an incubator under conditions of 37° C. and 5% CO2 and used in the experiment.
(§3) A549 (lung carcinoma), Hela (cervix adenocarcinoma), HepG2 (hepatocellular carcinoma), MCF7 (breast carcinoma), and Beas-2B (normal lung) cells cultured in Example 6-1 were inoculated into a 96-well plated at 1×10^4 cells/well, and then for the stabilization of cells, the cells were cultured in an incubator at 37° C. and 5% CO2 for 16 hours or more. Subsequently, among the compounds synthesized in Example 1, the compounds 1, 10 and 72 were treated at a concentration of 1 to 30 μM, and then cultured for 6 hours. At this time, DMSO and β-lapachone were used as the control group. After 4 hours of incubation, 10 μl of WST solution was added to each cell, the reaction was carried out for 2 hours, and the absorbance was measured at 450 nm with a multi-scan machine. The cell viabilities of A549 (lung carcinoma), Hela (cervix adenocarcinoma), HepG2 (hepatocellular carcinoma) and MCF7 (breast carcinoma) cells are shown in Table 4 and FIG. 6 below.

Assay [2] concerns acute myelogenous leukemia mouse model in which FLT3-ITD was overexpressed. The experiment in a line: Changes in monocyte cells in acute leukemia mouse model overexpressing FLT3-ITD. Format: in vivo. The note with it: 120 mg/kg in diet, 8 weeks, FACS, FIG. 4. Here is the method: In order to confirm the change in the expression of the FLT3-ITD gene by Compound 1 of the present invention, peripheral blood and spleen were collected after 8 weeks from the animals of an experimental group in which Compound 1 of the present invention was mixed and administered in a diet at a concentration of 120 mg/kg using a mouse (jackson lab) that systemically overexpressed FLT3-ITD, and a control group to which only a solvent was administered (untreated group).
In the case of peripheral blood, cold 1×PBS was added to a small amount of blood, centrifuged, washed, to which RBC lysis buffer was added and reacted for 5 minutes at room temperature to remove red blood cells. […] The antibodies were reacted on ice at a ratio of 1:200 for 20 minutes, washed with 1×PBS, then resuspended with 1×PBS containing 1% FBS, and quantified by FACS, and shown in FIG. 4A.
In the case of the spleen, the cells were crushed on a mesh having a 40 μm hole, separated into single cells, and then washed with cold 1×PBS to which RBC lysis buffer was added and reacted at room temperature for 5 minutes to remove red blood cells. […] The antibodies were reacted on ice at a ratio of 1:200 for 20 minutes, washed with 1×PBS, resuspended in 1×PBS containing 1% FBS, and quantified by FACS, and shown in FIGS. 4B and 4C.

Another assay relates to A549 (lung carcinoma). The experiment in a line: Cell viability in solid cancer cells, WST assay, A549. In kind it is cell-based, human. The conditions noted are these: Homo sapiens, A549, 1 to 30 μM, 6 hours.
Text: as §1, §2, §3

For assay [3], the system named is HepG2 (hepatocellular carcinoma). Put plainly: Cell viability in solid cancer cells, WST assay, HepG2. In kind it is cell-based, human. The conditions noted are these: Homo sapiens, HepG2, 1 to 30 μM, 6 hours.
Text: as §1, §2, §3

The subject of the next assay is KG1α cells. The experiment in a line: Cell viability in KG1α cells, WST assay. In kind it is cell-based, human. The conditions noted are these: 0.1 to 3 μM. An excerpt: The constructed cell lines were also diverse. Thus, in order to confirm the applicability to a wide range of therapeutic agents that are not therapeutic agents for specific types of acute leukemia, in the present invention, KG1α cells constructed by selecting only cells having a stem cell phenotype from KG1 cells, which are cell lines obtained from a person with acute myelogenous leukemia, were used. HL60 cells, which are cell lines obtained from a person with acute promyelocytic leukemia, and U937 cells, which are cell lines obtained from a person with histiocytic lymphoma, were used.
KG1α and HL60 cells were cultured in IMDM medium containing 20% FBS (fetal bovine serum), and U937 cells were cultured in RPMI 1640 medium containing 10% FBS. All cells were cultured in an incubator under conditions of 37° C. and 5% CO2, and subcultured once every 2 or 3 days and used in the experiment.
KG1α cells are cells resistant to idarubicin and cytarabine, which are the therapeutic agents for acute myeloid leukemia, and are refractory AML cells. KG1α cells cultured in Example 2-1 were cultured into a 96-well plate at 1×10^5 cells/well, and then cultured in an incubator at 37° C. and 5% CO2 for 16 hours or more for the stabilization of cells. […] At this time, DMSO was used as a control group. After 24 hours, each cell was treated with 10 μl of WST solution, reacted for 2 hours, and then absorbance was measured at 450 nm with a multi-scan machine, and the cell viability of KG1α cells was confirmed as shown in Table 4 below.

A further assay has as its system BCR-ABL fusion gene. The experiment in a line: Expression level of BCR-ABL fusion gene in K562 cells, western blot. Format: cell-based, human. The conditions noted are these: 0.5-2.5 μM, 6 hours, FIG. 5. Here is the method: The BCR-ABL fusion gene, existing only in chronic myelogenous leukemia, generated and transmitted continuous cell growth signals to induce the growth of cancer cells. Thus, after chronic myeloid leukemia cells were treated with the compound of the present invention, western blot was used to confirm whether the expression level of the BCR-ABL fusion gene was reduced.
First, the K562 cells cultured in Example 4-1 were inoculated into a 60 mm plate at 5×10^6 cells/well, and then for the stabilization of cells, the cells were cultured in an incubator at 37° C. and 5% CO2 for 16 hours or more. The, the compound 1 was treated at concentrations of 0.5, 1, 1.5, 2 and 2.5 μM, respectively, and cultured for 6 hours, and then the cells were recovered. A protein extraction buffer (RIPA buffer) was added to the cells obtained in the above process, and reacted on ice for 30 minutes to break the cell membrane, which was centrifuged to remove a supernatant, and then the protein was extracted. The extracted protein was developed by electrophoresis using SDS-PAGE, and then transferred to the PVDF membrane. Then, the antibody related to the BCR-ABL fusion gene was reacted, and then the amount of the protein was confirmed using the ECL buffer, and Western blot results for the K562 cell line are shown in FIG. 5.

The structures appear in SMILES notation.

Turning to `CC(C)c1nc2c([nH]1)C(=O)C(=O)c1ccccc1-2` [compound 1], the IC50 in assay [1] was 4.6 µM; with A549 (lung carcinoma), 5.1 µM; in assay [3], 10.1 µM; in the assay with KG1α cells (24 hours), 0.5 µM; in the assay on KG1α cells (Homo sapiens, KG-1, 24 h), 0.5 to 1 µM. The “suppression of proliferation of monocyte cells in peripheral blood and spleen” value in assay [2] is reported as “excellent effect of suppressing the proliferation of monocyte cells”. For the same compound, in the assay with BCR-ABL fusion gene, the “expression level of the BCR-ABL fusion gene” value is recorded as “decreased in a concentration-dependent manner”. The expression of phospho-bcr-abl result in the assay on BCR-ABL fusion gene is reported as “also decreased”. In addition, the “expression of phospho-stat5” value in the assay with BCR-ABL fusion gene is “also decreased”.

Broadly, the IC50 is the concentration at which inhibition is half-maximal. Higher therefore signals lower potency.
